Experimental data as given in the NIST ThermoML archive (doi:10.1016/j.jct.2019.03.007).

Experiment: molar heat capacity at constant pressure
Conditions: 101.33 kPa, Crystal 1, DSC

O=[N+]([O-])[O-].O=[N+]([O-])[O-].[Ca+2] [calcium nitrate]
Conditions	molar heat capacity at constant pressure [J/K/mol]
361.78 K	152.56
362.18 K	160.28
362.78 K	152.75
363.18 K	160.44
363.78 K	152.95
364.18 K	160.63
364.78 K	153.15
365.18 K	160.81
365.78 K	153.35
366.18 K	161.02
366.78 K	153.54
367.18 K	161.17
367.78 K	153.74
368.18 K	161.33
368.78 K	153.94
369.18 K	161.53
369.78 K	154.14
370.18 K	161.7
370.78 K	154.34
371.18 K	161.95
371.78 K	154.54
372.18 K	162.09
372.78 K	154.75
373.18 K	162.29
373.78 K	154.94
374.18 K	162.35
374.78 K	155.12
375.18 K	162.54
375.78 K	155.3
376.18 K	162.75
376.78 K	155.47
377.18 K	162.97
377.78 K	155.64
378.18 K	163.18
378.78 K	155.81
379.18 K	163.4
379.78 K	155.97
380.18 K	163.62
380.78 K	156.14
381.18 K	163.84
381.78 K	156.31
382.18 K	164.05
382.78 K	156.48
383.18 K	164.32
383.78 K	156.65
384.18 K	164.57
384.78 K	156.82
385.18 K	164.8
385.78 K	156.99
386.18 K	164.98
386.78 K	157.16
387.18 K	165.18
387.78 K	157.33
388.18 K	165.31
388.78 K	157.5
389.18 K	165.47
389.78 K	157.67
390.18 K	165.67
390.78 K	157.83
391.18 K	165.88
391.78 K	158
392.18 K	166.07
392.78 K	158.17
393.18 K	166.27
393.78 K	158.34
394.18 K	166.46
394.78 K	158.51
395.18 K	166.6
395.78 K	158.68
396.18 K	166.74
396.78 K	158.86
397.18 K	166.86
397.78 K	159.03
398.18 K	167.03
398.78 K	159.2
399.18 K	167.15
399.78 K	159.38
400.18 K	167.33
400.78 K	159.54
401.18 K	167.43
401.78 K	159.71
402.18 K	167.63
402.78 K	159.87
403 K	160.69
403.18 K	167.77
403.78 K	160.04
404 K	160.78
404.18 K	167.98
404.78 K	160.23
405 K	161.04
405.18 K	168.21
405.78 K	160.41
406 K	160.25
406.18 K	168.41
406.78 K	160.58
407 K	160.32
407.18 K	168.63
407.78 K	160.76
408 K	160.3
408.18 K	168.88
408.78 K	160.93
409 K	160.49
409.18 K	169.09
409.78 K	161.1
410 K	161.08
410.18 K	169.35
410.78 K	161.27
411 K	160.76
411.18 K	169.49
411.78 K	161.44
412 K	160.92
412.18 K	169.72
412.78 K	161.61
413 K	161.04
413.18 K	169.84
413.78 K	161.77
414 K	161.26
414.18 K	170.06
414.78 K	161.94
415 K	161.41
415.18 K	170.21
415.78 K	162.11
416 K	161.42
416.18 K	170.45
416.78 K	162.27
417 K	161.52
417.18 K	170.58
417.78 K	162.43
418 K	161.73
418.18 K	170.76
418.78 K	162.59
419 K	162.11
419.18 K	170.93
419.78 K	162.75
420 K	162.15
420.18 K	171.07
420.78 K	162.91
421 K	162.33
421.18 K	171.17
421.78 K	163.06
422 K	162.71
422.18 K	171.32
422.78 K	163.22
423 K	162.96
423.18 K	171.45
423.78 K	163.38
424 K	163.14
424.18 K	171.55
424.78 K	163.54
425 K	163.33
425.18 K	171.73
425.78 K	163.69
426 K	163.37
426.18 K	171.87
426.78 K	163.85
427 K	163.76
427.18 K	172.05
427.78 K	164.01
428 K	163.77
428.18 K	172.26
428.78 K	164.17
429 K	163.7
429.18 K	172.5
429.78 K	164.33
430 K	163.8
430.18 K	172.74
430.78 K	164.49
431 K	163.76
431.18 K	173.01
431.78 K	164.65
432 K	163.92
432.18 K	173.21
432.78 K	164.81
433 K	164.38
433.18 K	173.43
433.78 K	164.96
434 K	164.69
434.18 K	173.63
434.78 K	165.13
435 K	164.65
435.18 K	173.82
435.78 K	165.29
436 K	164.7
436.18 K	174.04
436.78 K	165.45
437 K	164.8
437.18 K	174.21
437.78 K	165.61
438 K	165.07
438.18 K	174.35
438.78 K	165.77
439 K	165.44
439.18 K	174.62
439.78 K	165.93
440 K	165.84
440.18 K	174.82
440.78 K	166.09
441 K	165.74
441.18 K	175.02
441.78 K	166.26
442 K	165.94
442.18 K	175.16
442.78 K	166.42
443 K	166.4
443.18 K	175.33
443.78 K	166.58
444 K	166.4
444.18 K	175.47
444.78 K	166.75
445 K	166.55
445.18 K	175.65
445.78 K	166.92
446 K	166.46
446.18 K	175.77
446.78 K	167.08
447 K	166.39
447.18 K	175.94
447.78 K	167.25
448 K	166.47
448.18 K	176.08
448.78 K	167.41
449 K	166.51
449.18 K	176.2
449.78 K	167.57
450 K	166.69
450.18 K	176.36
450.78 K	167.73
451 K	166.81
451.18 K	176.52
451.78 K	167.88
452 K	166.99
452.18 K	176.72
452.78 K	168.04
453 K	167.12
453.18 K	176.94
453.78 K	168.19
454 K	167.19
454.18 K	177.19
454.78 K	168.34
455 K	167.39
455.18 K	177.36
455.78 K	168.49
456 K	167.61
456.18 K	177.51
456.78 K	168.64
457 K	167.67
457.18 K	177.68
457.78 K	168.79
458 K	167.76
458.18 K	177.88
458.78 K	168.94
459 K	167.66
459.18 K	178.01
459.78 K	169.09
460 K	167.65
460.18 K	178.19
